# Molecular target: T1, gastrin receptor (Rattus norvegicus, UniProt P30553)
# T1 construct: The stomach was excised and flushed with ca. 1 ml of unbuffered physiological saline solution; from tissue; host or cells: isolated whole stomach of immature rats (ca. 21 days old)
# T1 sequence (P30553 1-452): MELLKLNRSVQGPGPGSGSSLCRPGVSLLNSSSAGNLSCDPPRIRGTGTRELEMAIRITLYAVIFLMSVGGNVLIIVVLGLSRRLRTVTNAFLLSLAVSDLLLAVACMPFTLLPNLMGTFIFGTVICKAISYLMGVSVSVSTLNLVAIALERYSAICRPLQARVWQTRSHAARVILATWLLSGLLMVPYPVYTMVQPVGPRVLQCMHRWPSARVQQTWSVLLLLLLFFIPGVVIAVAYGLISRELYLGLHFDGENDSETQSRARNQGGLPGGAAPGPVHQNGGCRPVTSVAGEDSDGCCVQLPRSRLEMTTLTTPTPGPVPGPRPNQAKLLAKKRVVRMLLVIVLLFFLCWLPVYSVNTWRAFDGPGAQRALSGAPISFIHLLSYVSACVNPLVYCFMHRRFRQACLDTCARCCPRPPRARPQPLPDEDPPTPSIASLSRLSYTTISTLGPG
# Assay: gastrin antagonist activity in immature rat stomach assay (pentagastrin dose-response, acid secretion)
# Details: isolated immature rat stomach, cumulative pentagastrin dose-response curves
# Description: The compounds of the examples were also tested for gastrin antagonist activity in an immature rat stomach assay. The procedure was as follows:
# The oesophagus of immature rats (33-50 g, ca. 21 days old) was ligated at the level of the cardiac sphincter and the duodenal sphincter was cannulated. The stomach was excised and flushed with ca. 1 ml of unbuffered physiological saline solution. The fundus was punctured and cannulated. A further 4-5 ml of unbuffered solution was flushed through the stomach to ensure the preparation was not leaking. The stomach was lowered into a jacketed organ bath containing 40 ml of buffered solution containing 3×10^−8 M 5-methylfurmethide, maintained at 37° and gassed vigorously with 95% O2/5% CO2. The stomach was continuously perfused at a rate of 1 ml min^−1 with unbuffered solution gassed with 100% O2 with the perfusate passing over an internally referenced pH-electrode fixed 12 cm above the stomach.
# After 120 min of stabilisation the drugs were added directly to the serosal solution in the organ bath and after a further 60 min cumulative pentagastrin dose-response curves were started. Changes in acid secretion were monitored and the curves analysed according to Black et al., Br. J. Pharmacol., 1985, 86, 581.
row,Compound,Gastrin pKb
1,5-{[5-(2-Adamantan-1-yl-ethyl)-2-[1-(2-methyl-propyl)-piperidin-2-yl])-1H-imidazole-4-carbonyl]-amino}-2-methyl-benzoic Acid [Example 142],6.75
2,"O=C(O)Cc1cccc(NC(=O)c2nc(C3CC4CCC3C4)[nH]c2CCC23CC4CC(CC(C4)C2)C3)c1 (racemic) [Example 210, (±)-exo-(3-{[5-(2-Adamantan-1-yl-ethyl)-2-bicyclo[2.2.1]hept-2-yl-1H-imidazole-4-carbonyl]-amino}-phenyl)-acetic Acid]",6.89
3,"O=C(O)c1cccc(NC(=O)c2nc(C3CC4C=CC3C4)[nH]c2COC23CC4CC(CC(C4)C2)C3)c1 (racemic) [Example 234, (±)-endo-3-{[5-(Adamantan-1-yloxymethyl)-2-bicyclo[2.2.1]hept-5-en-2-yl-1H-imidazole-4-carbonyl]-amino}-benzoic Acid]",8.71
4,"O=C(Nc1cccc(CC(O)C(=O)O)c1)c1nc(C2CCCCC2)[nH]c1CCC12CC3CC(CC(C3)C1)C2 (racemic) [Example 260, (±)-(3-{[5-(2-Adamantan-1-yl-ethyl)-2-cyclohexyl-1H-imidazole-4-carbonyl]-amino}-phenyl)-2-hydroxy-propionic Acid]",7.01
5,Cc1ccc(NC(=O)c2nc(C3CCCCC3)[nH]c2CCC23CC4CC(CC(C4)C2)C3)cc1C(=O)O [Example 107],7.65

# Same assay, conditions: isolated immature rat stomach, cumulative pentagastrin dose-response curves, read-out: Gastrin pKb (converted)
row,Kb,Compound
1,263 nM,"CC1(C)C2CC[C@@]1(C)C(c1nc(C(=O)Nc3cccc(C(=O)O)c3)c(CCC34CC5CC(CC(C5)C3)C4)[nH]1)C2 (mixture of isomers) [Example 206, 3-{[5-(2-Adamantan-1-yl-ethyl)-2-[(1S,2RS)-1,7,7-trimethyl-bicyclo[2.2.1]hept-2-yl]-1H-imidazole-4-carbonyl]-amino}-benzoic Acid]"
2,15.8 nM,"CN1CCCCC1c1nc(C(=O)Nc2cccc(C(=O)O)c2)c(CCC23CC4CC(CC(C4)C2)C3)[nH]1 (racemic) [Example 139, (±)-3-{[5-(2-Adamantan-1-yl-ethyl)-2-(1-methyl-piperidin-2-yl)-1H-imidazole-4-carbonyl]-amino}-benzoic Acid]"
3,871 nM,"CC(=O)NC(C(=O)O)c1cccc(NC(=O)c2nc(C3CCCCC3)[nH]c2CCC23CC4CC(CC(C4)C2)C3)c1 (racemic) [Example 264, (±)-Acetylamino-(3-{[5-(2-adamantan-1-yl-ethyl)-2-cyclohexyl-1H-imidazole-4-carbonyl]-amino}-phenyl)-acetic Acid]"
4,148 nM,"CC(=O)NC(Cc1cccc(NC(=O)c2nc(C3CCCCC3)[nH]c2CCC23CC4CC(CC(C4)C2)C3)c1)C(=O)O (racemic) [Example 265, (±)-2-Acetylamino-3-(3-{[5-(2-adamantan-1-yl-ethyl)-2-cyclohexyl-1H-imidazole-4-carbonyl]-amino}-phenyl)-propionic Acid]"
5,63.1 nM,"Cc1cc(C)c(-c2nc(C(=O)Nc3ccc(F)c(C(=O)O)c3)c(CCC34CC5CC(CC(C5)C3)C4)[nH]2)c(C)c1 [Example 156, 5-{[5-(2-Adamantan-1-yl-ethyl)-2-(2,4,6-trimethyl-phenyl)-1H-imidazole-4-carbonyl]-amino}-2-fluoro-benzoic Acid]"
6,219 nM,"Cc1cc(C)c(-c2nc(C(=O)Nc3cccc(CC(=O)O)c3)c(CCC34CC5CC(CC(C5)C3)C4)[nH]2)c(C)c1 [Example 157, (3-{[5-(2-Adamantan-1-yl-ethyl)-2-(2,4,6-trimethyl-phenyl)-1H-imidazole-4-carbonyl]-amino}-phenyl)-acetic Acid]"
7,912 nM,"COc1cc(OC)c(-c2nc(C(=O)Nc3cccc(C(=O)O)c3)c(CCC34CC5CC(CC(C5)C3)C4)[nH]2)c(OC)c1 [Example 160, 3-{[5-(2-Adamantan-1-yl-ethyl)-2-(2,4,6-trimethoxy-phenyl)-1H-imidazole-4-carbonyl]-amino}-benzoic Acid]"
8,2.95 nM,"O=C(O)c1cccc(NC(=O)c2nc(C3CCCCC3)[nH]c2CCC23CCC(CC2)CC3)c1 [Example 175, 3-{[5-(2-Bicyclo[2.2.2]oct-1-yl-ethyl)-2-cyclohexyl-1H-imidazole-4-carbonyl]-amino}-benzoic Acid]"
